The target of assay [1] is T1, MBP-TtProDH EE (apo-EE, reconstituted apo-EE) (Thermus thermophilus, UniProt Q72IB8, F10E/L12E, form not given).
T1 construct: gene TT_C1214; N-terminal MBP fusion kept; variant EE (F10E/L12E); E. coli BSV11 riboflavin auxotroph, apo form
As to the kind of experiment: flavin fluorescence quenching titration. It counts as binding. The settings on record: 50 mM sodium phosphate, pH 7.4.

For assay [2], the target named is T1, MBP-TtProDH EE (apo-EE, reconstituted apo-EE). Nature of the assay: flavin fluorescence quenching titration. Particulars: very weak binding, data not shown; 200 nM riboflavin; 50 mM sodium phosphate, pH 7.4.

This is an account of results in PMC5335563, “Proline dehydrogenase from Thermus thermophilus does not discriminate between FAD and FMN as cofactor” (Scientific Reports, 2017).

T1 sequence (Q72IB8 whole entry F10E/L12E, form open, the tested form may be a part): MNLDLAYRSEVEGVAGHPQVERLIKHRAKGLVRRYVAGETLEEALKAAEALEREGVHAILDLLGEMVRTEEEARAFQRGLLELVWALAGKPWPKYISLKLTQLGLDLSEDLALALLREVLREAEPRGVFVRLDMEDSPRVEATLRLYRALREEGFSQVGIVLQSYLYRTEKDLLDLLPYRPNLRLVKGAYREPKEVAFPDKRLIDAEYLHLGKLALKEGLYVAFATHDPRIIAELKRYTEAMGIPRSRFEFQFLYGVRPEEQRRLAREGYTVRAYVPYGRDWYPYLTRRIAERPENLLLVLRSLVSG

`Cc1cc2nc3c(=O)[nH]c(=O)nc-3n(C[C@H](O)[C@H](O)[C@H](O)COP(=O)(O)O)c2cc1C` [FMN]: the Kd (in general, the constant that tells how readily two partners part at equilibrium) in assay [1] (apoenzyme titrated into 200 nM FMN) worked out at 0.0195 ± 0.0008 µM.
Regarding `Cc1cc2nc3c(=O)[nH]c(=O)nc-3n(C[C@H](O)[C@H](O)[C@H](O)CO)c2cc1C` [riboflavin], in assay [2], the “flavin fluorescence quenching titration” value was “riboflavin shows a very weak binding to the apoenzyme (data not shown)”.
`Cc1cc2nc3c(=O)[nH]c(=O)nc-3n(C[C@H](O)[C@H](O)[C@H](O)COP(=O)(O)OP(=O)(O)OC[C@H]3O[C@@H](n4cnc5c(N)ncnc54)[C@H](O)[C@@H]3O)c2cc1C` [FAD] returned a Kd in assay [1] (apoenzyme titrated into 200 nM FAD) of 0.018 ± 0.0005 µM.
